According to US9040903B2, “Precursor selection using an artificial intelligence algorithm increases proteomic sample coverage and reproducibility” (Wisconsin Alumni Research Foundation, priority 2011, dated 2015):

B1: bone morphogenetic protein 4 (protein, UniProt P12644 293-408, looked up)
Bone morphogenetic protein 4: SPKHHSQRARKKNKNCRRHSLYVDFSDVGWNDWIVAPPGYQAFYCHGDCPFPLADHLNSTNHAIVQTLVNSVNSSIPKACCVPTELSAISMLYLDEYDKVVLKNYQEMVVEGCGCR

How the values were obtained:
[1] = tested on: mouse skeletal muscle myotubes; test: Immunoblot of mitochondrial proteins after iron chelation of myotubes; assay type: cell-based
[2] = tested on: human embryonic stem cells (ESCs); test: TMT 6-plex isobaric tag quantitation of human embryonic stem cells before and two days after BMP4 treatment (inSeq-triggered QuantMode scans); assay type: cell-based; settings: two days post treatment
Description: To assess this decision node, a sample comprising three biological replicates of human embryonic stem cells (ESCs) was analyzed pre- and two days-post bone morphogenetic protein 4 (BMP4) treatment (i.e., TMT 6-plex, three pre-treatment and three post BMP4 treatment cell populations). BMP4, a growth factor that induces context-dependent differentiation in pluripotent stem cells, is widely used to study differentiation to biologically relevant cell lineages such as mesoderm and endoderm. […] Here the ratio of change between control and treatment cell lines measured in one QM scan is large (5.86) but not significant (P=0.067, Student's t-test with Storey correction) (34). Note significance testing was accomplished by assessing variation within the three biological replicates of both treatment and control cell lines. The measured ratio remains relatively unchanged (5.22 and 5.43) as reporter tag signal from additional quantitation scans are added; however, the corresponding P-values decrease to 0.014 and 0.012 when two or three quantitation scans are summed. […] Ideally this log2 ratio would be zero, indicating perfect biological replication; however, when only one quantitation scan is employed this ratio severely deviates from zero with decreasing tag intensity. To improve overall data quality and to omit potentially erroneous measurements arbitrary reporter signal cutoffs (dashed vertical line in FIG. 16B) can be employed. These cutoffs eliminate many low-abundance peptides which often represent proteins of interest. Summation of additional quantitation scans increases the average reporter tag intensity, raising nearly all of the protein measurements above the intensity cutoff value (74, 9, and 4 proteins omitted using one, two, and three quantification scans, respectively).
Human embryonic stem cells (line H1) were maintained in feeder independent media as previously described (Chen et al). […]
TMT quantification was performed using TagQuant within COMPASS. […]

Molecule | cell death ([1]; mouse myotube C2C12 cells, 100 μM) | decrease in mitochondrial proteins ([1]; mouse myotube C2C12 cells, 100 μM, 24 hrs) | levels of the mitochondrial voltage dependent anion channel (VDAC) ([1]; mouse skeletal muscle myotubes, FIG. 12) | loss of proteins involved in mitochondrial oxidative phosphorylation (OXPHOS) ([1]; mouse skeletal muscle myotubes, dose-dependent and time-dependent, FIG. 12) | ratio of change between control and treatment cell lines, peptide FCADHPFLFFIR (SEQ ID NO:3) from protein SERPINB8 ([2]; one QM scan, P=0.067) | ratio of change between control and treatment cell lines, peptide FCADHPFLFFIR (SEQ ID NO:3) from protein SERPINB8 ([2]; three quantitation scans summed, P=0.012) | ratio of change between control and treatment cell lines, peptide FCADHPFLFFIR (SEQ ID NO:3) from protein SERPINB8 ([2]; two quantitation scans summed, P=0.014)
CC(=O)N(O)CCCCCNC(=O)CCC(=O)N(O)CCCCCNC(=O)CCC(=O)N(O)CCCCCN [DFO, desferrioxamine] | without causing cell death | marked decrease in mitochondrial proteins | unchanging levels | induces loss of proteins involved in mitochondrial oxidative phosphorylation (OXPHOS) |  |  | 
B1 |  |  |  |  | 5.86 | 5.43 | 5.22
